As a reminder, the IC50 is the concentration that inhibits the measured activity by half. The low end stands for inhibition by little substance, the high end for a need for much substance.

≈ marks a conversion by molar mass, not a printed value.

The assay concerns HeLa. The experiment in a line: Cytotoxicity against human HeLa cells by Fukuzawa's method. The class given is functional, cell-based.
In the case of `O=C(O)C(=O)c1c(-c2c[nH]c3cc(O)ccc23)ncc2[nH]c3ccc(O)cc3c12` [HYRTIOERECTINE A], the IC50 came to 10 µg/mL (≈ 25.8 µM). The value for `O=C(O)[C@H](O)Cc1c[nH]c2ccc(O)cc12` [HYRTIOERECTINE C] was 4.5 µg/mL (≈ 20.3 µM); that for `C[C@H]1N[C@@H](C(=O)O)Cc2c1[nH]c1ccc(O)cc21` [HYRTIOERECTINE B] was 5 µg/mL (≈ 20.3 µM).

The record behind these values is ChEMBL document CHEMBL1158817, “Hyrtioerectines A-C, cytotoxic alkaloids from the red sea sponge hyrtioserectus” (J Nat Prod, 2005).
